ChEMBL document CHEMBL4616607, “3D proteome-wide scale screening and activity evaluation of a new ALKBH5 inhibitor in U87 glioblastoma cell line” (Bioorg Med Chem, 2020)
The source made the active and inactive calls. The rule behind the calls is not given here.

What was measured:
[1] = system: NCI-H460; experiment: Antiinvasive activity against human H460 cells assessed as reduction in cell invasion measured after 24 hrs using Diff-quick staining by light microscopy based Boyden chamber assay; type: functional
[2] = system: U-87 MG; experiment: Antiinvasive activity against human U87MG cells assessed as reduction in cell invasion at 25 to 50 uM measured after 24 hrs using Diff-quick staining by light microscopy based Boyden chamber assay relative to control; type: functional, U-87MG ATCC; set-up: scale not given: the % may be the effect or the level left
[3] = system: NCI-H460; experiment: Cytotoxicity against human H460 cells assessed as effect on cell viability at 1 to 50 uM measured after 24 hrs by MTT assay; type: functional, cell-based
[4] = system: NCI-H460; experiment: Antimigratory activity against human H460 cells assessed as inhibition of cell migration measured after 24 hrs by scratch wound healing assay; type: functional, cell-based
[5] = system: NCI-H460; experiment: Cytotoxicity against human H460 cells assessed as effect on cell viability at 1 to 50 uM measured after 24 hrs by SRB assay; type: functional, cell-based
[6] = system: U-87 MG; experiment: Effect on CD73 mRNA expression in human U87MG cells at 10 to 25 uM measured after 1 to 6 hrs by RT-PCR analysis; type: functional, cell-based; details: U-87MG ATCC
[7] = system: U-87 MG; experiment: Cytotoxicity against human U87MG cells assessed as effect on cell viability at 1 to 50 uM measured after 24 hrs by MTT assay; type: functional, cell-based; details: U-87MG ATCC
[8] = system: A549; experiment: Antimigratory activity against human A549 cells assessed as reduction in cell migration at 25 uM measured after 24 hrs by scratch wound healing assay; type: functional, cell-based
[9] = system: U-87 MG; experiment: Antimigratory activity against human U87MG cells assessed as inhibition of cell migration measured after 6 hrs by scratch wound healing assay; type: functional, cell-based, U-87MG ATCC
[10] = system: U-87 MG; experiment: Antiinvasive activity against human U87MG cells assessed as reduction in cell invasion measured after 24 hrs using Diff-quick staining by light microscopy based Boyden chamber assay; type: functional, U-87MG ATCC
[11] = biological target: RNA demethylase ALKBH5 (Homo sapiens) (UniProt Q6P6C2); experiment: Inhibition of human recombinant ALKBH5 demethylase activity assessed as increase in methylated 6A-RNA level at 10 to 25 uM incubated for 30 min by dot blot analysis relative to control
Sequence of RNA demethylase ALKBH5 (Homo sapiens) (Q6P6C2 2-394 limits assumed): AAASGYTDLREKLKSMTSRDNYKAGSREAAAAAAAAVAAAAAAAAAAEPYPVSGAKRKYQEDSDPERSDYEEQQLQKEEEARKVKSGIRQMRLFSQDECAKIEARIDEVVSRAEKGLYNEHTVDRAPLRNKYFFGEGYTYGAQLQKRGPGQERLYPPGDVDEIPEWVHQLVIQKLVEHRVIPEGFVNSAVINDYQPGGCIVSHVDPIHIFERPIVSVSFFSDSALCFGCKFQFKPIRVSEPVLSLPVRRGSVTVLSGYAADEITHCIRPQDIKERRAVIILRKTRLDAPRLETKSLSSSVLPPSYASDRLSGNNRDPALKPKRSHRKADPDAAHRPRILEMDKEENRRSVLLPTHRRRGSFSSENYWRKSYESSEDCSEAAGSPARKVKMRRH

[12] = system: U-87 MG; experiment: Cytotoxicity against human U87MG cells assessed as effect on cell viability at 1 to 50 uM measured after 24 hrs by SRB assay; type: functional, cell-based; details: U-87MG ATCC
[13] = system: A549; experiment: Cytotoxicity against human A549 cells assessed as reduction in cell viability measured after 24 hrs by MTT assay; type: functional, cell-based
[14] = biological target: RNA demethylase ALKBH5 (Homo sapiens) (UniProt Q6P6C2); experiment: Inhibition of ALKBH5 demethylase activity in human U87MG cells assessed as decrease in CD73 expression at 10 uM measured after 1 hr by Western blot analysis; type: cell-based; details: U-87MG ATCC
[15] = system: A549; experiment: Cytotoxicity against human A549 cells assessed as reduction in cell viability after 24 hrs by SRB assay; type: functional, cell-based
[16] = biological target: RNA demethylase ALKBH5 (Homo sapiens) (UniProt Q6P6C2); experiment: Inhibition of ALKBH5 demethylase activity in human U87MG cells assessed as decrease in CD73 expression at 10 uM measured after 2 hrs by Western blot analysis; type: cell-based; details: U-87MG ATCC
[17] = system: A549; experiment: Antiinvasive activity against human A549 cells assessed as reduction in cell invasion measured after 24 hrs using Diff-quick staining by light microscopy based Boyden chamber assay; type: functional
[18] = biological target: RNA demethylase ALKBH5 (Homo sapiens) (UniProt Q6P6C2); experiment: Inhibition of human recombinant ALKBH5 demethylase activity assessed as increase in methylated 6A-RNA level incubated for 30 min by dot blot analysis
[19] = biological target: RNA demethylase ALKBH5 (Homo sapiens) (UniProt Q6P6C2); experiment: Inhibition of ALKBH5 demethylase activity in human U87MG cells assessed as decrease in CD73 expression measured after 1 to 24 hrs by Western blot analysis; type: cell-based; details: U-87MG ATCC

With NC1=N[C@H](O)[C@H]2[C@H]3O[C@]4(O)O[C@@H]([C@@H](O)[C@@]2(N1)[C@@H]4O)[C@]3(O)CO the Activity [1] was “Dose-dependent effect”.

In the case of CCCc1c(C)nc2c3ccccc3oc(=S)n12, the Activity [2] is reported as 90%, the Activity [3] is reported as “inactive” and the inhibition [4] is reported as “Dose-dependent effect”. For the same compound, the IC50 ([4]; NCI-H460, 24 h) was 10.1 µM, the Activity [5] was “inactive” and the Activity [6] was “inactive”. For the same compound, the Activity [7] was “inactive”, the Activity [1] was “Dose-dependent effect” and the IC50 ([1]; NCI-H460, 24 h) was 17.8 µM. For the same compound, the Activity [8] was “inactive”, the IC50 [9] was 11 µM and the inhibition ([9]; U-87MG ATCC) was “Dose-dependent effect”. For the same compound, the IC50 [10] was 2.48 µM, the Activity ([10]; U-87MG ATCC) was “Dose-dependent effect” and the fold change (FC) [11] was 3. The Activity [12] was “inactive”, the Activity [13] was “Dose-dependent effect” and the inhibition [14] was “Active”. The Activity [15] was “Dose-dependent effect”, the inhibition [16] was “Active” and the Activity [17] was “Dose-dependent effect”. The IC50 ([17]; A549, 24 h) was 26.2 µM, the inhibition [18] was “Dose-dependent effect” and the inhibition [19] was “Dose-dependent effect”.
